From patent publication US20140350050A1, “PYRIDINE COMPOUNDS AS INHIBITORS OF KINASE” (TELIGENE LTD., priority 2011, published 2014) come the findings set out here.

Molecules are shown by their SMILES.

The target of data set [1] is T1, BAF3-EML4-ALK stable cell line (Homo sapiens, UniProt Q9UM73).
T1 construct: fused on or other part: Q9HC35 (Echinoderm microtubule-associated protein-like 4)
Briefly: BAF3-EML4-ALK cell assay (MTT cell proliferation). The format is cell-based. As to conditions: 72 hours, read-out: BAF3-EML4-ALK Cell (IC50 grading). As for the experimental part:
BAF3-EML4-ALK Cell Assay:
A method of establishing BAF3-EML4-ALK stable cell line: Transfer 5×10^6 BAF3 cells to a new tube, pellet the cells, and remove PBS by aspiration.; Resuspend the cells in 1 ml electroporation buffer, this provides 5×10^6 of cells; Transfer 200 μl of cell suspension to EP tube, add 5 ug DNA, flip and place it on ice for 10 min; Pipet the 200 μl cell suspension into 2 mm electroporation cuvette; Place the cuvette into shockpod, close the lid, and press the PULSE button; Set parameters: Expentional decay pulse: VOL=200 V; CAP=900 uF, RES=1000Ω; Transfer all cells from electroporation cuvette to 6 well plate, adding 2 ml DMEMF12 containing 5 ng/ml IL3, 24 h later, replace the medium with DMEM F12 containing 2 μg/ml blasticidin S and 5 ng/ml IL3, maintain for 3 days; change the medium with DMEM F12 containing 2 ug/ml blasticidin S and 2.5 ng/ml IL3, maintain 3 days; change the medium with DMEM F12 containing 2 ug/Ml blasticidin S, maintain to culture.
MTT Cell proliferation assay: 5×10^3 per well cell with 100 μl medium was seeded in 96-well plate; 24 hours later, 100 μl fresh medium with various concentration of compounds; After the cells were treated by compounds for 72 hours, add 20 μl MTT (5 mg/ml) into each wells; The plate is incubated at 37° C. for 4 hours; Centrifuge the plate at 800 g for 10 mins, Aspirated the medium, add 150 μl DMSO into each well. Shake plates gently for 10 mins, Measure the absorbance at 570 nm on plate reader; IR=(WC−WT)/WC.

The target of a further data set is ALK kinase (Homo sapiens, UniProt Q9UM73). The data set can be described thus: ALK kinase assay. The format is biochemical. Conditions: ALK kinase assay; read-out: ALK (IC50 grading). As for the experimental part:
An in vitro assay which determines the ability of a test compound to inhibit ALK kinase. a) kinase-tagged T7 phage strains were prepared in an E. coli host derived from the BL21 strain. E. coli were grown to log-phase and infected with T7 phage and incubated with shaking at 32° C. until lysis. The lysates were centrifuged and filtered to remove cell debris. The remaining kinases were produced in HEK-293 cells and subsequently tagged with DNA for qPCR detection. […] The liganded beads were blocked with excess biotin and washed with blocking buffer (SeaBlock (Pierce), 1% BSA, 0.05% Tween 20, 1 mM DTT) to remove unbound ligand and to reduce non-specific binding. […] All reactions were performed in polystyrene 96-well plates in a final volume of 0.135 ml. […] The kinase concentration in the eluates was measured by qPCR. […]
b) An alternative method to conduct the kinase assay with the following condition and procedure: Reagent: Base Reaction buffer; 20 mM Hepes (pH 7.5), 10 mM MgCl2, 1 mM EGTA, 0.02% Brij35, 0.02 mg/ml BSA, 0.1 mM Na3VO4, 2 mM DTT, 1% DMSO.
1. Preparing indicated substrate in freshly prepared Base Reaction Buffer
2. Delivering any required cofactors to the substrate solution above
3. Delivering indicated kinase into the substrate solution and gently mix
4. Delivering compounds in DMSO into the kinase reaction mixture
5. Delivering ^33P-ATP (specific activity 0.01 μCi/μl final) into the reaction mixture to initiate the reaction.
6. Incubating kinase reaction for 120 min. at room temperature
7. Reactions are spotted onto P81 ion exchange paper (Whatman #3698-915)
8. Washing filters extensively in 0.75% Phosphoric acid. […]
c) An alternative method to conduct the kinase assay with the following condition and procedure: The assay was performed using Kinase-Glo Plus luminescence kinase assay kit (Promega). It measures kinase activity by quantitating the amount of ATP remaining in solution following a kinase reaction. The luminescent signal from the assay is correlated with the amount of ATP present and is inversely correlated with the amount of kinase activity.
The compound were diluted in 10% DMSO and 5 μl of the dilution was added to a 50 μl reaction so that the final concentration of DMSO is 1% in all of reactions. All of the enzymatic reactions were conducted at 30° C. for 40 minutes. The 50 μl reaction mixture contains 40 mM Tris, pH 7.4, 10 mM MgCl2, 0.1 mg/ml BSA, 1 mM DTT, 0.2 mg/ml substrate peptide, 10 μM ATP and ALK (Table 2.3.1). After the enzymatic reaction, 50 μl of Kinase-Glo Plus Luminescence kinase assay solution (Promega) was added to each reaction and incubate the plate for 5 minutes at room temperature. Luminescence signal was measured using a BioTek Synergy 2 microplate reader. ALK activity assays were performed in duplicate at each concentration. The luminescence data were analyzed using the computer software, Graphpad Prism. The difference between luminescence intensities in the absence of ALK (Lut) and in the presence of ALK (Luc) was defined as 100% activity (Lut−Luc). Using luminescence signal (Lu) in the presence of the compound, % activity was calculated as % activity={(Lut−Lu)/(Lut−Luc)}×100%, where Lu=the luminescence intensity in the presence of the compound (all percent activities below zero were shown zero in the table). The values of % activity versus a series of compound concentrations were then plotted using non-linear regression analysis of Sigmoidal dose-response curve generated with the equation Y=B+(T−B)/1+10^((Log EC50−X)×Hill Slope), where Y=percent activity, B=minimum percent activity, T=maximum percent activity, X=logarithm of compound and Hill Slope=slope factor or Hill coefficient. The IC50 value was determined by the concentration causing a half-maximal percent activity.

Data set [2] in a line: PK (pharmacokinetic) study in rat, cassette dosing. The format is in vivo. Conditions: male, Wistar, plasma. As for the experimental part: A representative protocol for the PK (pharmacokinetic) is as followed: Animals used were Wistar rat, male and weight about 300-359 grams. Compound 21 and 22 were given either IV or oral to the same animals by cassette dosing. The dose for each compound is 1 mg/kg (volume 5 ml/kg) IV and 2 mg/kg (volume 10 ml/kg) oral. The formulation for IV was in PBS, the pH is adjusted by dilute HCl until compounds were totally dissolved. 0.5% Na-CMC suspension was used for the oral formulation. Sample collection: for IV route, plasma sample were collected at the time point 0.083, 0.25, 0.5, 1, 1.5, 2, 4, 6, 8, 12, 24 h. For oral route, plasma sample were collected at the time point 0.167, 0.33, 0.5, 1, 2, 4, 6, 8, 12, 24 h. Analysis: LC-MS/MS is used to calculate PK parameters: t1/2, tmax, Cmax, Vss and AUC etc.

Sequence of ALK kinase (Q9UM73 19-1620): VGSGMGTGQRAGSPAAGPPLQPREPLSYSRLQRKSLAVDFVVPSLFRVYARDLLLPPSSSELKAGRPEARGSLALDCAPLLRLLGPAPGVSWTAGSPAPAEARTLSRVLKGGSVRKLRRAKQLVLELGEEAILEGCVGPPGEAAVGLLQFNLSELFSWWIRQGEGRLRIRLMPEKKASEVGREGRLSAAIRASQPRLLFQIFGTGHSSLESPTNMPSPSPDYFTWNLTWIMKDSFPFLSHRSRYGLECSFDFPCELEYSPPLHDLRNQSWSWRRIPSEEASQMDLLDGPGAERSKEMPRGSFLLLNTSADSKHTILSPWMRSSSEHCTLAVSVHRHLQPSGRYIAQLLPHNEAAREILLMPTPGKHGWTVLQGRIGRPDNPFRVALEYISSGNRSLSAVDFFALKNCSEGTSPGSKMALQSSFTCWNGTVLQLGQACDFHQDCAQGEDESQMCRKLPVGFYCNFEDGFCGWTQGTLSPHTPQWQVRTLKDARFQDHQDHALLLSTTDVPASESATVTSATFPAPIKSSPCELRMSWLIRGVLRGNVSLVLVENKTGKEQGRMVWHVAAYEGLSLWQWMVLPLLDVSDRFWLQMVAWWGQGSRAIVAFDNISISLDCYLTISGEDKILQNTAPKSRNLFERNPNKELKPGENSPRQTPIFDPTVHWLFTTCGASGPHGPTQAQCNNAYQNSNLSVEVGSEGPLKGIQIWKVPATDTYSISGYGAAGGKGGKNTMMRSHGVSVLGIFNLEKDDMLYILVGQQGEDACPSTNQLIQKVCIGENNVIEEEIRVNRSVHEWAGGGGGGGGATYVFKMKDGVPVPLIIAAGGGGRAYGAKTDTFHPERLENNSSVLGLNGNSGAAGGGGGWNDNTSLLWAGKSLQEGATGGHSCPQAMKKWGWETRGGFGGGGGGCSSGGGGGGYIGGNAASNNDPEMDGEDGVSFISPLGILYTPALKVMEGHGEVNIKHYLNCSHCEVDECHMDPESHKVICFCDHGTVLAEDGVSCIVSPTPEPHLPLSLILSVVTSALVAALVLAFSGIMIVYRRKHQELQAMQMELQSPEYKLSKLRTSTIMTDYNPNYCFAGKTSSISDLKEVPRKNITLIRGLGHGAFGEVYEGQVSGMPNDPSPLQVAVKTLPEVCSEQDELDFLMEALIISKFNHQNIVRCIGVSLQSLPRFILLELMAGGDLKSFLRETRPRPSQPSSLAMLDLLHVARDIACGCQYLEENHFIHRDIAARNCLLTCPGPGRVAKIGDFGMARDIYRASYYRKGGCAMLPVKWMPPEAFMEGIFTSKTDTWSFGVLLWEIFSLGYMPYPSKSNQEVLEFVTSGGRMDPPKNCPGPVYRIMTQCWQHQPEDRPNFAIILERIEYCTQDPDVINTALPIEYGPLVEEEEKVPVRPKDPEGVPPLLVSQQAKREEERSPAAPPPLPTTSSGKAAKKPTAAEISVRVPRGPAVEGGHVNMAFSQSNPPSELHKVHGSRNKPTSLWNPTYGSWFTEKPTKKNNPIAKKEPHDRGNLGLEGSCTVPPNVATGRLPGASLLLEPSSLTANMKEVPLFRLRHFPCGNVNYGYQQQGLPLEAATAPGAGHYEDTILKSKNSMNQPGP
T1 sequence (Q9UM73 whole entry, change not shown, the tested form may be a part): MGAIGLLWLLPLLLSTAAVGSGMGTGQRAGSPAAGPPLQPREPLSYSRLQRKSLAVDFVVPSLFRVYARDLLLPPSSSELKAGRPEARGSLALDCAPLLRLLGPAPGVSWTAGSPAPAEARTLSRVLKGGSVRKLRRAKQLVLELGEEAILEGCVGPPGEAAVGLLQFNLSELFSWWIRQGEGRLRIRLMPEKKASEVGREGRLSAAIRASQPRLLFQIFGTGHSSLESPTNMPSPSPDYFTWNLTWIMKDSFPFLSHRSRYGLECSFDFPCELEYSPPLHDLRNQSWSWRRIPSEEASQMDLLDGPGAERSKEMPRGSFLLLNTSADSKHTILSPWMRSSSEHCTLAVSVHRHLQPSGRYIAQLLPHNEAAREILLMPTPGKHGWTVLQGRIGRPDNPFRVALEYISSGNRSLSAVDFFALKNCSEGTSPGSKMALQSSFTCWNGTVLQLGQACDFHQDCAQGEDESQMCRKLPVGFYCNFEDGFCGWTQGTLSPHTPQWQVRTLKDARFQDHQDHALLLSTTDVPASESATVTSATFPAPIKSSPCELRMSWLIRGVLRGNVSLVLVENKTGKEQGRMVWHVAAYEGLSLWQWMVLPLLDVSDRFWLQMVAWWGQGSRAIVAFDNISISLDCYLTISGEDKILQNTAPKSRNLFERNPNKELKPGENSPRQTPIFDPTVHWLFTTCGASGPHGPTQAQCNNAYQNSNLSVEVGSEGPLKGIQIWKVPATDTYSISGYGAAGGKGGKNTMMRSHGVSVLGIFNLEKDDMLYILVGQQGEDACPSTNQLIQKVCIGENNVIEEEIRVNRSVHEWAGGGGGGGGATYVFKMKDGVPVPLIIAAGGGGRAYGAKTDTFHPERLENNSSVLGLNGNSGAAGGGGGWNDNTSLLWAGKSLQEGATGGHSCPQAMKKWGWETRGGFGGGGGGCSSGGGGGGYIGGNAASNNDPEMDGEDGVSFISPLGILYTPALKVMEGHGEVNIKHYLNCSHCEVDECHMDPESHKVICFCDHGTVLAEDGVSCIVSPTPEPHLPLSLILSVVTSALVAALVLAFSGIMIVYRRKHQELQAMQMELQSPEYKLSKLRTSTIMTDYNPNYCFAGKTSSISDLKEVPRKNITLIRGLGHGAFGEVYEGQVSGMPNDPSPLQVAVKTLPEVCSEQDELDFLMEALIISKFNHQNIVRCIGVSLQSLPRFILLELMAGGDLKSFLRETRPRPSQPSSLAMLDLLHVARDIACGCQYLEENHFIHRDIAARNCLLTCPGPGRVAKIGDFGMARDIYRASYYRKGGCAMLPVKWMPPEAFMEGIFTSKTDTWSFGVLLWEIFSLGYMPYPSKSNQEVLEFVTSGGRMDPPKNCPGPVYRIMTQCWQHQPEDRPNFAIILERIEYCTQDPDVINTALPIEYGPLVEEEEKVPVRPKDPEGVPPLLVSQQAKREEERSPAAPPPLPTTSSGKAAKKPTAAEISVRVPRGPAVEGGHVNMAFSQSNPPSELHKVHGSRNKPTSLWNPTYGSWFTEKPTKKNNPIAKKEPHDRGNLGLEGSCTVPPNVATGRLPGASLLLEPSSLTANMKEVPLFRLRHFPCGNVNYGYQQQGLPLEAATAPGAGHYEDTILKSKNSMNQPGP

For `CCCNc1ncc(-c2cnn(C3CCNCC3)c2)cc1OC(C)c1c(Cl)ccc(F)c1Cl` (centres unmarked) [Compound 12, 3-(1-(2,6-dichloro-3-fluorophenyl)ethoxy)-5-(1-(piperidin-4-yl)-1H-pyrazol-4-yl)-N-propylpyridin-2-amine], the GI50 in data set [1] was no more than 1 µM. Further, the IC50 (commonly the concentration needed to halve the response being measured) at ALK kinase is no more than 1 µM.
Turning to `CCN1CCC(n2cc(-c3cnc(N)c(O[C@@H](C)c4c(Cl)ccc(F)c4Cl)c3)cn2)CC1` [Compound 16, (S)-3-(1-(2,6-dichloro-3-fluorophenyl)ethoxy)-5-(1-(1-ethylpiperidin-4-yl)-1H-pyrazol-4-yl)pyridin-2-amine], in data set [1], the GI50 was no more than 1 µM. Further, the 50% inhibitory concentration (IC50) at ALK kinase is 0.1 to 1 µM.
For `C[C@@H](Oc1cc(-c2cnn(C3CCN(C)CC3)c2)cnc1N)c1c(Cl)ccc(F)c1Cl` [Compound 19, (R)-3-(1-(2,6-dichloro-3-fluorophenyl)ethoxy)-5-(1-(1-methylpiperidin-4-yl)-1H-pyrazol-4-yl)pyridin-2-amine] the same measures were no more than 0.1 µM and no more than 0.1 µM.
As for `[2H]C([2H])([2H])N1CCC(n2cc(-c3cnc(N)c(O[C@@H](C)c4c(Cl)ccc(F)c4Cl)c3)cn2)CC1` [Compound 15, (S)-3-(1-(2,6-dichloro-3-fluorophenyl)ethoxy)-5-(1-(1-d3-methyl-piperidin-4-yl)-1H-pyrazol-4-yl)pyridin-2-amine], in data set [1], the GI50 was no more than 1 µM. Further, the IC50 on ALK kinase fell in the range of 0.1 to 1 µM.
For `CCNc1ncc(-c2cnn(C3CCNCC3)c2)cc1OC(C)c1c(Cl)ccc(F)c1Cl` (centres unmarked) [Compound 11, 3-(1-(2,6-dichloro-3-fluorophenyl)ethoxy)-N-ethyl-5-(1-(piperidin-4-yl)-1H-pyrazol-4-yl)pyridin-2-amine] the same measures were no more than 1 µM and no more than 1 µM.
As to `[2H]C([2H])([2H])C([2H])([2H])N1CCC(n2cc(-c3cnc(N)c(O[C@@H](C)c4c(Cl)ccc(F)c4Cl)c3)cn2)CC1` [Compound 17, (S)-3-(1-(2,6-dichloro-3-fluorophenyl)ethoxy)-5-(1-(1-d5-ethyl-piperidin-4-yl)-1H-pyrazol-4-yl)pyridin-2-amine], the GI50 in data set [1] is no more than 1 µM. Further, the IC50 on ALK kinase fell in the range of 0.1 to 1 µM.
For `CCN1CCC(n2cc(-c3cnc(N)c(OC(C)c4c(Cl)ccc(F)c4Cl)c3)cn2)CC1` (centres unmarked) [Compound 7, 3-(1-(2,6-dichloro-3-fluorophenyl)ethoxy)-5-(1-(1-ethylpiperidin-4-yl)-1H-pyrazol-4-yl)pyridin-2-amine] the same measures were no more than 0.1 µM and no more than 0.1 µM.
`CCN1CCC(n2cc(-c3cnc(N)c(O[C@H](C)c4c(Cl)ccc(F)c4Cl)c3)cn2)CC1` [Compound 21, (R)-3-(1-(2,6-dichloro-3-fluorophenyl)ethoxy)-5-(1-(1-ethylpiperidin-4-yl)-1H-pyrazol-4-yl)pyridin-2-amine]: the GI50 in data set [1] was no more than 0.1 µM. Further, in data set [2] (IV cassette 1 mg/kg), the AUC(0-inf) (as a rule, total exposure, with the tail of the curve extrapolated) was found to be 443 ng·h/mL; the AUC(0-t) (as a rule, the area under the concentration-time curve up to a stated or last time point) amounted to 442 ng·h/mL; the Cmax (in general, the peak of the concentration-time curve) was found to be 317 ng/mL; the MRT (usually a mean duration of stay, worked out from the concentration-time curve) was found to be 2.89 h. Further, in data set [2] (IV cassette 1 mg/kg), the time to peak (Tmax) (commonly the time from dosing to the highest level) was 0.083 h, the clearance (usually the volume of plasma or blood freed of the substance per unit of time) is 37.7 mL/min/kg and the half-life (usually the time in which the quantity being followed falls by half) is 2.89 h. Further, in data set [2] (oral cassette 2 mg/kg), the AUC(0-inf) was found to be 154 ng·h/mL, the exposure AUC(0-t) is 148 ng·h/mL, the peak level (Cmax) was 22.9 ng/mL and the MRT was found to be 4.97 h. Also, in data set [2] (oral cassette 2 mg/kg), the Tmax turned out to be 4 h and the half-life is 2.99 h. Besides, the bioavailability – broadly, the share of a dose that reaches the circulation, judged against a reference dose that is usually intravenous – in data set [2] (oral cassette 2 mg/kg vs IV 1 mg/kg, read-out: F (bioavailability)) came to 16.8%. In addition, the 50% inhibitory concentration (IC50) on ALK kinase was no more than 0.1 µM.
Take `CC(=O)Nc1ncc(-c2cnn(C3CCNCC3)c2)cc1O[C@@H](C)c1c(Cl)ccc(F)c1Cl` [Compound 13, (S)—N-(3-(1-(2,6-dichloro-3-fluorophenyl)ethoxy)-5-(1-(piperidin-4-yl)-1H-pyrazol-4-yl)pyridin-2-yl)acetamide]: in data set [1], the GI50 is no more than 1 µM. On ALK kinase, the IC50 lay in the range of 0.1 to 1 µM.
For `C[C@H](Oc1cc(-c2cnn(C3CCN(C)CC3)c2)cnc1N)c1c(Cl)ccc(F)c1Cl` [Compound 14, (S)-3-(1-(2,6-dichloro-3-fluorophenyl)ethoxy)-5-(1-(1-methylpiperidin-4-yl)-1H-pyrazol-4-yl)pyridin-2-amine] the same measures were no more than 1 µM and 0.1 to 1 µM.
The matching figures for `CC(=O)Nc1ncc(-c2cnn(C3CCNCC3)c2)cc1OC(C)c1c(Cl)ccc(F)c1Cl` (centres unmarked) [Compound 9, N-(3-(1-(2,6-dichloro-3-fluorophenyl)ethoxy)-5-(1-(piperidin-4-yl)-1H-pyrazol-4-yl)pyridin-2-yl)acetamide]: no more than 0.1 µM and no more than 0.1 µM.
The matching figures for `CCN1CCC(n2cc(-c3cnc(NC(C)=O)c(OC(C)c4c(Cl)ccc(F)c4Cl)c3)cn2)CC1` (centres unmarked) [Compound 10, N-(3-(1-(2,6-dichloro-3-fluorophenyl)ethoxy)-5-(1-(1-ethylpiperidin-4-yl)-1H-pyrazol-4-yl)pyridin-2-yl)acetamide]: 0.1 to 1 µM and 0.1 to 1 µM.
